Data set [1] is described as follows: solubility pre-screen in an aqueous, acidic milieu. The data set is classed as physicochemical.
A short description of data set [2]: precipitation in the aqueous solution of the binding assay. The data set is classed as physicochemical. The note with it: aqueous solution of the MHC class II binding assay, read-out: Precipitation in assay: lowest concentration at which an insoluble white precipitate is seen. The source says:
This is a characteristic of promiscuous HLA-DRB1* binders.

The structures appear in SMILES notation. Where “and” joins values, the source holds several entries; their conditions need not be identical. Equal entries are not always repeated. Where a SMILES comes first, the peptide text is derived from it.

Take `CC[C@H](C)[C@H](NC(=O)CNC(=O)[C@@H](NC(=O)[C@@H](N)Cc1c[nH]cn1)[C@@H](C)CC)C(=O)N[C@H](C(=O)N[C@@H](CC(=O)O)C(=O)N[C@@H](CC(C)C)C(=O)N[C@@H](CCCCN)C(=O)NCC(=O)N[C@@H](CCC(=O)O)C(=O)N[C@@H](CC(C)C)C(=O)N[C@@H](CC(=O)O)C(=O)N[C@@H](CCSC)C(=O)N[C@@H](CCCNC(=N)N)C(=O)N[C@@H](CC(N)=O)C(=O)O)[C@@H](C)CC` [HDM31A] (H-HIGIIDLKGELDMRN-OH): the Solubility test result in data set [1] was “YES”. Besides, the solubility in data set [2] is 1000 µM and 1700 µg/mL.
As to `CSCC[C@H](NC(=O)[C@@H]1CCCN1C(=O)[C@H](CC(=O)O)NC(=O)[C@H](Cc1ccccc1)NC(=O)[C@@H](NC(=O)[C@H](CCC(=O)O)NC(=O)[C@H](CO)NC(=O)[C@@H](N)CCCCN)[C@@H](C)O)C(=O)N[C@@H](CCCCN)C(=O)N[C@H](C(=O)N1CCC[C@H]1C(=O)N[C@@H](CC(=O)O)C(=O)N[C@@H](Cc1c[nH]cn1)C(=O)N[C@@H](CO)C(=O)N[C@@H](CC(=O)O)C(=O)O)C(C)C` [HDM29B] (H-KSETFDPMKVPDHSD-OH), in data set [1], the Solubility test entry is reported as “YES”. For the same molecule, the solubility in data set [2] was 1000 µM and 1700 µg/mL.
Take `CC[C@H](C)[C@H](N)C(=O)N[C@@H](CC(=O)O)C(=O)N[C@@H](CC(C)C)C(=O)N[C@@H](CCCCN)C(=O)NCC(=O)N[C@@H](CCC(=O)O)C(=O)N[C@@H](CC(C)C)C(=O)N[C@@H](CC(=O)O)C(=O)N[C@@H](CCSC)C(=O)N[C@@H](CCCNC(=N)N)C(=O)N[C@@H](CC(N)=O)C(=O)N[C@H](C(=O)N[C@@H](CCC(N)=O)C(=O)N[C@H](C(=O)N[C@@H](CCCNC(=N)N)C(=O)O)C(C)C)[C@@H](C)CC` [HDM32A] (H-IDLKGELDMRNIQVR-OH): the Solubility test entry in data set [1] is given as “YES”. In addition, the solubility in data set [2] is 5000 µM and 9000 µg/mL.
Regarding `CC(C)C[C@H](NC(=O)[C@H](CCC(N)=O)NC(=O)[C@H](Cc1ccccc1)NC(=O)[C@@H]1CCCN1C(=O)[C@H](CCCCN)NC(=O)CNC(=O)[C@@H](N)CCCNC(=N)N)C(=O)N[C@@H](CCC(=O)O)C(=O)N[C@@H](C)C(=O)N[C@H](C(=O)N[C@@H](Cc1ccccc1)C(=O)N[C@@H](CCC(=O)O)C(=O)N[C@@H](C)C(=O)N[C@@H](CC(N)=O)C(=O)N[C@@H](CCC(N)=O)C(=O)N[C@@H](CC(N)=O)C(=O)N[C@H](C(=O)O)[C@@H](C)O)C(C)C` [HDM21B] (H-RGKPFQLEAVFEANQNT-OH; N-terminus and C-terminus assumed), the Solubility test result in data set [1] is recorded as “YES”. Also, in data set [2], the solubility is 1000 µM and 1980 µg/mL.
Consider `CC[C@H](C)[C@H](NC(=O)[C@@H](NC(=O)[C@H](C)NC(=O)[C@@H](NC(=O)[C@H](C)NC(=O)[C@H](CO)NC(=O)[C@H](Cc1c[nH]cn1)NC(=O)[C@@H](NC(=O)[C@H](CCC(N)=O)NC(=O)[C@H](C)NC(=O)[C@H](CC(C)C)NC(=O)[C@H](C)NC(=O)[C@H](CCC(=O)O)NC(=O)[C@@H](N)CCCNC(=N)N)[C@@H](C)O)[C@@H](C)CC)C(C)C)C(=O)O` [HDM09A] (H-REALAQTHSAIAVI-OH; N-terminus and C-terminus assumed), for which the Solubility test result in data set [1] was “YES”. For the same molecule, the solubility in data set [2] was 1000 µM and 2900 µg/mL.
Regarding `CC[C@H](C)[C@H](NC(=O)[C@H](CCC(=O)O)NC(=O)[C@@H](NC(=O)[C@H](CCCCN)NC(=O)[C@H](C)N)[C@@H](C)CC)C(=O)N[C@@H](CCCCN)C(=O)N[C@@H](C)C(=O)N[C@@H](CO)C(=O)N[C@@H](CC(C)C)C(=O)N[C@@H](CC(=O)O)C(=O)NCC(=O)N[C@@H](CC(C)C)C(=O)N[C@@H](CCC(=O)O)C(=O)O` [HDM27] (H-AKIEIKASLDGLE-OH), the Solubility test entry in data set [1] is “YES”. The solubility in data set [2] is 1000 µM and 1400 µg/mL.
As for `CC(C)C[C@H](NC(=O)[C@H](CCC(N)=O)NC(=O)[C@H](Cc1ccccc1)NC(=O)[C@@H]1CCCN1C(=O)[C@@H](N)CCCCN)C(=O)N[C@@H](CCC(=O)O)C(=O)N[C@@H](C)C(=O)N[C@H](C(=O)N[C@@H](Cc1ccccc1)C(=O)N[C@@H](CCC(=O)O)C(=O)N[C@@H](C)C(=O)N[C@@H](CC(N)=O)C(=O)N[C@@H](CCC(N)=O)C(=O)N[C@@H](CC(N)=O)C(=O)N[C@H](C(=O)O)[C@@H](C)O)C(C)C` [HDM21] (H-KPFQLEAVFEANQNT-OH; N-terminus and C-terminus assumed), in data set [1], the Solubility test entry is “YES”. Besides, in data set [2], the solubility was 200 µM and 300 µg/mL.
`CC[C@H](C)[C@H](NC(=O)[C@H](C)NC(=O)[C@H](C)NC(=O)[C@@H](NC(=O)[C@H](C)NC(=O)[C@H](CCC(=O)O)NC(=O)[C@H](CC(=O)O)NC(=O)[C@@H](NC(=O)[C@H](C)NC(=O)[C@@H](N)CCCCN)C(C)C)C(C)C)C(=O)N[C@@H](CCC(=O)O)C(=O)N[C@@H](CCCCN)C(=O)N[C@@H](CO)C(=O)O` [HDM28] (H-KAVDEAVAAIEKS-OH): the Solubility test result in data set [1] is on record as “YES”. For the same molecule, the solubility in data set [2] was 1000 µM and 1300 µg/mL.
As for `CC[C@H](C)[C@H](NC(=O)[C@H](C)NC(=O)[C@@H](N)[C@@H](C)O)C(=O)N[C@@H](Cc1ccccc1)C(=O)N[C@@H](CCC(N)=O)C(=O)N[C@@H](CC(=O)O)C(=O)N[C@H](C(=O)N[C@H](C(=O)N[C@@H](CCCNC(=N)N)C(=O)N[C@@H](C)C(=O)N[C@@H](CCC(=O)O)C(=O)N[C@@H](CCSC)C(=O)N[C@H](C(=O)N[C@@H](CCCCN)C(=O)O)[C@@H](C)O)C(C)C)[C@@H](C)O` [HDM48] (H-TAIFQDTVRAEMTK-OH; N-terminus and C-terminus assumed), in data set [1], the Solubility test result is “YES”. Also, the solubility in data set [2] is 1000 µM and 1600 µg/mL.
As for `CC[C@H](C)[C@H](NC(=O)[C@H](C)NC(=O)[C@H](CS)NC(=O)[C@H](C)NC(=O)[C@H](CC(C)C)NC(=O)[C@@H](NC(=O)CNC(=O)[C@@H](N)CC(=O)O)C(C)C)C(=O)N[C@@H](C)C(=O)N[C@H](C(=O)N[C@@H](Cc1c[nH]cn1)C(=O)N[C@@H](C)C(=O)N[C@@H](CCCCN)C(=O)N[C@H](C(=O)N[C@@H](CCCNC(=N)N)C(=O)O)[C@@H](C)CC)[C@@H](C)O` [HDM26A] (H-DGVLACAIATHAKIR-OH; N-terminus and C-terminus assumed), the solubility in data set [2] is 1000 µM and 1500 µg/mL.
Still for that read-out and setting: in the case of `CC[C@H](C)[C@H](N)C(=O)NCC(=O)N[C@H](C(=O)N[C@H](C(=O)N[C@@H](CC(=O)O)C(=O)N[C@@H](CC(C)C)C(=O)N[C@@H](CCCCN)C(=O)NCC(=O)N[C@@H](CCC(=O)O)C(=O)N[C@@H](CC(C)C)C(=O)N[C@@H](CC(=O)O)C(=O)N[C@@H](CCSC)C(=O)N[C@@H](CCCNC(=N)N)C(=O)N[C@@H](CC(N)=O)C(=O)O)[C@@H](C)CC)[C@@H](C)CC` [HDM31] (H-IGIIDLKGELDMRN-OH) it was 1000 µM and 1800 µg/mL.
For `CC(C)[C@H](NC(=O)[C@H](C)NC(=O)[C@@H](N)CCC(=O)O)C(=O)N[C@@H](Cc1ccccc1)C(=O)N[C@@H](CCC(=O)O)C(=O)N[C@@H](C)C(=O)N[C@@H](CC(N)=O)C(=O)N[C@@H](CCC(N)=O)C(=O)N[C@@H](CC(N)=O)C(=O)N[C@H](C(=O)N[C@@H](CCCCN)C(=O)N[C@H](C(=O)N[C@@H](C)C(=O)N[C@@H](CCCCN)C(=O)O)[C@@H](C)O)[C@@H](C)O` [HDM22A] (H-EAVFEANQNTKTAK-OH; N-terminus and C-terminus assumed), the Solubility test result in data set [1] was “YES”.
On the same count and under the same terms, next, `C[C@@H](O)[C@H](NC(=O)[C@H](CC(=O)O)NC(=O)[C@H](Cc1c[nH]c2ccccc12)NC(=O)[C@H](CO)NC(=O)[C@H](CC(N)=O)NC(=O)[C@@H](N)CCCNC(=N)N)C(=O)N[C@@H](CC(N)=O)C(=O)N[C@@H](Cc1c[nH]c2ccccc12)C(=O)NCC(=O)N[C@@H](CC(=O)O)C(=O)N[C@@H](CC(N)=O)C(=O)NCC(=O)N[C@@H](Cc1ccc(O)cc1)C(=O)NCC(=O)O` [HDM16A] (H-RNSWDTNWGDNGYG-OH): “YES”; `CC[C@H](C)[C@H](NC(=O)[C@H](CC(N)=O)NC(=O)[C@@H](N)CCCNC(=N)N)C(=O)N[C@@H](CCC(N)=O)C(=O)N[C@H](C(=O)N[C@@H](CCCNC(=N)N)C(=O)NCC(=O)N[C@@H](CC(C)C)C(=O)N[C@@H](CCCCN)C(=O)N[C@@H](CCC(N)=O)C(=O)N[C@@H](CCSC)C(=O)N[C@@H](CCCCN)C(=O)N[C@@H](CCCNC(=N)N)C(=O)N[C@H](C(=O)NCC(=O)O)C(C)C)C(C)C` [HDM34] (H-RNIQVRGLKQMKRVG-OH; N-terminus and C-terminus assumed): “YES”.
For the molecule `CC[C@H](C)[C@H](NC(=O)CNC(=O)[C@@H](NC(=O)[C@H](Cc1c[nH]cn1)NC(=O)[C@H](CCCNC(=N)N)NC(=O)[C@H](CCC(=O)O)NC(=O)[C@H](Cc1ccccc1)NC(=O)[C@H](CCCCN)NC(=O)[C@@H](N)CC(=O)O)[C@@H](C)CC)C(=O)N[C@H](C(=O)N[C@@H](CC(=O)O)C(=O)N[C@@H](CC(C)C)C(=O)N[C@@H](CCCCN)C(=O)O)[C@@H](C)CC` [HDM30] (H-DKFERHIGIIDLK-OH; N-terminus and C-terminus assumed), the Solubility test entry in data set [1] is recorded as “YES”. In addition, the solubility in data set [2] was 5000 µM and 7900 µg/mL.
For the molecule `CC(C)C[C@H](NC(=O)[C@H](CCC(N)=O)NC(=O)[C@H](Cc1ccccc1)NC(=O)[C@@H]1CCCN1C(=O)[C@@H](N)CCCCN)C(=O)N[C@@H](CCC(=O)O)C(=O)N[C@@H](C)C(=O)N[C@H](C(=O)N[C@@H](Cc1ccccc1)C(=O)N[C@@H](CCC(=O)O)C(=O)N[C@@H](C)C(=O)N[C@@H](CC(N)=O)C(=O)N[C@@H](CCC(N)=O)C(=O)N[C@@H](CC(N)=O)C(=O)N[C@H](C(=O)N[C@@H](CCCCN)C(=O)O)[C@@H](C)O)C(C)C` [HDM21A] (H-KPFQLEAVFEANQNTK-OH; N-terminus and C-terminus assumed), the Solubility test entry in data set [1] is “YES”. Moreover, the solubility in data set [2] is 5000 µM and 9300 µg/mL.
Regarding `CC[C@H](C)[C@H](N)C(=O)N[C@@H](CC(=O)O)C(=O)N[C@@H](CC(C)C)C(=O)N[C@@H](CCCCN)C(=O)NCC(=O)N[C@@H](CCC(=O)O)C(=O)N[C@@H](CC(C)C)C(=O)N[C@@H](CC(=O)O)C(=O)N[C@@H](CCSC)C(=O)N[C@@H](CCCNC(=N)N)C(=O)N[C@@H](CC(N)=O)C(=O)N[C@H](C(=O)N[C@@H](CCC(N)=O)C(=O)O)[C@@H](C)CC` [HDM32] (H-IDLKGELDMRNIQ-OH; N-terminus and C-terminus assumed), the Solubility test entry in data set [1] was “YES”. Besides, the solubility in data set [2] is 5000 µM and 7700 µg/mL.

For the origin of these results see patent publication US9340580B2, “Peptide with multiple epitopes” (priority 2007, dated 2016).
